# Experimental data taken from patent US8202886B2, “Small molecule E2F inhibitor” (H. Lee Moffitt Cancer Center and Research Institute, Inc., priority 2008, dated 2012).
# Read-outs that look alike come from different tables or passages of the source.
# Experiments:
# H1299 = assay: Western blots of treated H1299 cells; assay type: cell-based
# Description: In order to further examine the mechanism of action of the therapeutic compound four lung cancer cell lines were treated with various concentrations of drug and western blots performed on cell extracts after 24 hr.
# breast cancer cell lines = assay: Western blots of Rb family members in breast cancer cell lines; assay type: cell-based; details: 40 micromolar, 24 hrs
# E2F4-deficient MEFs = assay: Apoptosis (ApoBrdU, PARP western) in E2F4-deficient MEFs; assay type: cell-based, mouse
# Description: FIG. 12A: MEFS derived from sibling WT and E2F4^−/− mice were treated for 24-hrs with the indicated doses of HLM006474. Apoptosis was determined using ApoBrdU (BD Pharmingen).
# FIG. 12B: MEFS derived from sibling WT and E2F4^−/− mice were treated as in A subjected to western blotting using a PARP antibody or E2F4 antibody. PARP cleavage (as indicated by the arrow) is an independent measure of apoptosis.
# To determine if the effect of the therapeutic compound is dependent upon E2F4, the inventors compared the therapeutic compound response of immortalized MEFs derived from E2F4-deficient mice with MEFS derived from wildtype siblings.
# NSCLC lines = assay: Western blots of cell cycle proteins in NSCLC lines; assay type: cell-based; details: every cell line treated, 40 micromolar, 24 hrs
# Description: The indicated NSCLC lines were treated with 40 micromolar the therapeutic compound and subjected western blotting 24 hrs later using the indicated antibodies.
# A375 melanocytes = assay: Three-dimensional skin model of A375 proliferation and invasion; assay type: cell-based, human; details: for activated caspase-3 positive cells (IHC): day 2, 5 or 8; for proliferation and invasion of melanocytes (S-100 IHC): day 12, 16 and 20
# Description: Culture inserts of differentiated full-thickness 3D skin reconstruction model of A375 melanoma cells were purchased from MatTek (Ashland, Mass.). These were prepared by culturing mixed suspensions of normal human epidermal keratinocytes and A375 cells (1:10 ratio) on fibroblast contracted collagen gels and allowing differentiation for approximately one week in serum free media to form a 3D skin-like structure. These cultures were treated with 0, 40 or 80 μM 6474 and harvested after 0, 2, 5, 8, 12, 16 and 20 days.
# In this model, the highly metastatic A375 melanocytes were mixed with normal human keratinocytes and seeded on fibroblast-contracted collagen gels. The mixed cells were then induced to differentiate in serum free media to form three-dimensional, highly differentiated, full thickness skin-like tissues. After seven days of differentiation the cells were then treated with 0 (DMSO carrier alone), 40 or 80 μM the therapeutic compound. The three-dimensional models were then cultured for 2, 5, 8, 12, 16 and 20 days. At the appointed time, 3D cultures were fixed in formalin, paraffin embedded, sectioned and either stained with H&E or processed for immunohistochemistry (1HC) using antibodies against S-100 to measure expression of a melanocyte marker, E2F4 to determine if it were down regulated as in 2D culture, activated caspase-3 to measure apoptosis and […] to measure the proliferative index.
# NCI60 cell lines = assay: NCI60 drug screen; assay type: cell-based; details: NCI standard concentration
# Text: FIG. 16: HLM006474 was submitted to the National Cancer Institutes Developmental Therapeutic Program NCI60 Drug Screening Program. […] Results are reported as mean growth percent less growth percent.
# The therapeutic compound was submitted to the NCI60 drug screen.
# A375 = assay: Apo-BrdU TUNEL apoptosis assay, A375; assay type: cell-based, human; details: 40-μM, 24-hrs
# Text: To determine if treatment with the therapeutic compound contributes to apoptosis, Cells were detached from culture plates by trypsin treatment, washed twice with PBS, and fixed in 70% ethanol. Fixed cells were washed twice with PBS and treated with RNase A and propidium iodide (PI). PI staining was examined using a Becton-Dickinson FACScan instrument and Cell Quest software. TUNEL assay for apoptosis utilized a Pharmingen APO-BRDU Kit. MTS (3-(4,5-dimethylthiazol-2-yl)-5-(3-carboxymethoxyphenyl)-2-(4-sulfophenyl)-2H-tetrazolium, inner salt) assays were conducted using a CellTiter 96® AQueous One Cell Proliferation Assay Kit (Promega).
# A375, MDA-MB-231 (231), MCF-7 and human foreskin fibroblasts (HFF) cells were treated with 40-μM of the therapeutic compound for 24-hrs and subjected to a FACS based terminal deoxynucleotidyl transferase (TUNEL) assay (Apo-BrdU Kit from BD Pharmingen).
# 231 cells = assay: RNase protection assay, 231; assay type: cell-based, human
# Description: The indicated breast cancer lines were treated with 40 micromolar the therapeutic compound and subjected RNAse protection assay 24 hrs later using the indicated probes.
# An RNase protection assay was performed to determine if downregulation of the Rb family members at the level of mRNA could account for the downregulation of the proteins. Two breast cancer cell lines were examined at 0, 3, 6, 9, 18 and 24 hr following the therapeutic compound treatment (FIG. 21).
# E2F4 = E2F4 (Homo sapiens, UniProt Q16254); assay: E2F4 DNA-binding EMSA on whole cell extracts of treated A375 cells; assay type: cell-based; details: for effect on E2F4 DNA-binding activity: 9-hrs
# Description: Whole cell extracts of treated cells were prepared and the DNA-binding activity of E2F4 measured by EMSA.
# PhosphoImager EMSA signals from four independent experiments were quantified using ImageQuant and the results are graphed in FIG. 10B. The apparent IC50 (drug concentration required to reduce total E2F4 DNA-binding activity by 50% of untreated cells was calculated using the Statistical Analysis System (Proc Probit)).
# To determine the activity of the therapeutic compound over time, A375 cells were treated with 40-μM of compound and examined at 0-, 3-, 6-, 9-, 12-, 18- and 24-hrs by EMSA and western (FIG. 11A).
# Quantitative EMSA assays were performed in triplicate.
# 8226-MR20 = assay: MTS viability assay, 8226-MR20; assay type: cell-based; details: Homo sapiens
# Description: Cells were collected 24 hours post drug exposure and extracts subjected to western blotting using antibodies to the indicated proteins. Cleavage of PARP indicates apoptosis.
# To examine its effect on a range of commonly studied cell lines, the inventors utilized standard MTS assays to quantify cell viability following the therapeutic compound treatment. Cytotoxicity was determined using MTS assays, which were conducted using a CellTiter 96® AQueous One Cell Proliferation Assay Kit (Promega) following the published protocol. Cells in 0.1 ml volume were plated in triplicate into 96-well plates, 1×10^4 cells/well. the therapeutic compound was added and after 24 hours of incubation at 37° C., 20 μl of MTS dye was added to each well. Plates were read at 490 nm following 4 hrs MTS reaction time. The concentration of drug which produced a 50% inhibition of growth (IC50) was calculated from linear regression analysis of the linear portion of the growth curves.
# [1] = 40 μM, listed as the therapeutic compound
# Chain of E2F4 (Q16254 2-413 limits assumed): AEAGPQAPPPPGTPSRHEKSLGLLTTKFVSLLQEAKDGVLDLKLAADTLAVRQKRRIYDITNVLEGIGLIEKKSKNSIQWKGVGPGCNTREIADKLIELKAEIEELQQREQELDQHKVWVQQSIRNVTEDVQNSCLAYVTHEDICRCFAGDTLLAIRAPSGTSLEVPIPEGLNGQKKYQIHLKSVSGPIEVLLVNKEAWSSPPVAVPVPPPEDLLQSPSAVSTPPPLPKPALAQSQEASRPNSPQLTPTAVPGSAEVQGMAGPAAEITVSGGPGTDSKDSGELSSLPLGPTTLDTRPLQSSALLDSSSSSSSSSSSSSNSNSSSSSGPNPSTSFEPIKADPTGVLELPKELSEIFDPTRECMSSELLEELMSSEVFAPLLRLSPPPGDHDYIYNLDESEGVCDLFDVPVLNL
# Chain of E2F4 (Q14186 whole entry partner): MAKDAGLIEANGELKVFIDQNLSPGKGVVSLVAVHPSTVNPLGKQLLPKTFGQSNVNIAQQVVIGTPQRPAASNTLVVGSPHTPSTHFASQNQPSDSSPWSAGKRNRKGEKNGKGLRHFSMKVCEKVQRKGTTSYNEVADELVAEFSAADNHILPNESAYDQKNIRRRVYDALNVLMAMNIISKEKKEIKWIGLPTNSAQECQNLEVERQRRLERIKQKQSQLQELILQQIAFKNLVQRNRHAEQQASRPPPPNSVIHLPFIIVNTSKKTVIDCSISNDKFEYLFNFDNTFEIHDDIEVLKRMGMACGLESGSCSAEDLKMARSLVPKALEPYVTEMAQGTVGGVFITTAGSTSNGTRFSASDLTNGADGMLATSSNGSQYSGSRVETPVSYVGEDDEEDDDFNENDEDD
structure (smiles),measurement,setting,value
CCOc1ccc(C(Nc2ccccn2)c2ccc3ccc(C)nc3c2O)cc1C (centres unmarked) [HLM006474],Bcl-2 (western),"H1299; H1299, 40-μM",significant downregulation
same,Mcl-1 (western),"H1299; H1299, 40-μM",no change
same,"sensitivity (downregulation of E2F1 and E2F4, PARP cleavage)","H1299; H1299, various concentrations, 24 hr",very sensitive
same,Rb and p107 proteins (western),breast cancer cell lines,dramatically down regulated
same,sensitivity of E2F4 knockout MEFs versus cells from littermate animals,E2F4-deficient MEFs,less sensitive
same,concentration required to detect PARP cleavage,E2F4-deficient MEFs; E2F4-deficient MEFs,60 µM
same,Rb (western),NSCLC lines,down (at least modestly)
same,effects on the other cells (fibroblasts and keratinocytes) of the 3D tissue,A375 melanocytes,no obvious deleterious effects
same,E2F4 levels (IHC),A375 melanocytes; 40 μM,clearly reduced
same,Ki-67 staining,"A375 melanocytes; 40 μM, day 2, 5 and 8",decrease in the number of proliferative cells
same,activated caspase-3 positive cells (IHC),A375 melanocytes; 40 μM,no detectable increase in apoptotic cells
same,activated caspase-3 positive cells (IHC),A375 melanocytes; [1],no significant difference
same,proliferation and invasion of melanocytes (S-100 IHC),A375 melanocytes; 40 μM,very rare
same,proliferation and invasion of melanocytes (S-100 IHC),A375 melanocytes; [1],significantly inhibited the proliferation and subsequent invasion
same,melanocyte proliferation (H&E),A375 melanocytes; 80 μM,essentially no melanocyte proliferation
same,growth inhibition in NCI60 cell lines,NCI60 cell lines,significantly growth inhibited
same,apoptosis (TUNEL),A375,dramatic induction of apoptosis
same,Rb at the mRNA level,231 cells,no significant change
same,p21 mRNA,231 cells,upregulated
same,effect on E2F4 DNA-binding activity,E2F4; 10 and 20-μM,limited effect
same,reduction of E2F4 activity,"E2F4; 40-μM drug, expected from dose response",50-75%
same,effect on E2F4 DNA-binding activity,E2F4; 40-μM,inhibition is clearly apparent
same,IC50,"E2F4; A375 cells treated 9-hrs, EMSA, Proc Probit, read-out: IC50 (drug concentration required to reduce total E2F4 DNA-binding activity by 50% of untreated cells)",29.8 µM
same,IC50,"E2F4; as restated for the NCI60 screen, read-out: known IC50",30 µM
same,time at which inhibition of E2F4 DNA-binding activity became apparent,E2F4; single 40-μM dose,9 h
same,IC50,8226-MR20,46 ± 6 µM
